What was measured:
[1] = test system: Mus musculus; experiment: Dose that prevents convulsions in 50% of the CF1 male mice tested after administration of 70 mg/kg of metrazole by intravenous route; format: functional
[2] = biological target: GABA-A receptor; anion channel; experiment: In vitro displacement of [3H]-diazepam from GABA-A Benzodiazepine receptor; format: protein-complex assay
[3] = Lethal dose was determined after intraperitoneal administration in mice; format: toxicity, organism-based; details: mouse, in vivo, ip

| Structure (SMILES) | ED50 [1] [mg/kg] | IC50 [2] [nM] | LD50 [3] [mg/kg] |
| --- | --- | --- | --- |
| CN(C(=O)CN)c1ccc(Cl)cc1C(=O)c1ccccc1 | 1 | 9.9 |  |
| CN1C(=O)CN=C(c2c(Cl)cccc2Cl)c2cc(Cl)ccc21 | 18.9 | 7 |  |
| Cl.NCC(=O)Nc1ccc(Cl)cc1C(=O)c1c(Cl)cccc1Cl | > 400 | 1000 |  |
| CN(C(=O)CN)c1ccc(Cl)cc1C(=O)c1c(Cl)cccc1Cl.Cl | > 200 | 930 | 245 |
| O=C1CN=C(c2c(Cl)cccc2Cl)c2cc(Cl)ccc2N1 [RO-223294] | 6 | 5.5 |  |
| CN1C(=O)CN=C(c2ccccc2)c2cc(Cl)ccc21 [DIAZEPAM] | 1.2 |  |  |
| O=C1CN=C(c2ccccc2Cl)c2cc(Cl)ccc2N1 [DELORAZEPAM] | 0.26 | 2.8 |  |
| NCC(=O)Nc1ccc(Cl)cc1C(=O)c1ccccc1Cl | 3.8 | 4.8 |  |

Source: ChEMBL document CHEMBL1122128, “Quinazolines and 1,4-benzodiazepines. 90. Structure-activity relationship between substituted 2-amino-N-(2-benzoyl-4-chlorophenyl)acetamides and 1,4-benzodiazepinones” (J Med Chem, 1982)
